Data on 2 molecules can be found in patent USRE47689E1, “Compounds for treating spinal muscular atrophy” (PTC Therapeutics, Inc., priority 2011, dated 2019).

For experiment [1], the system named is full length and Δ7 SMN2 mRNAs. The experiment in a line: Endogenous SMN2 mRNA end-point semi-quantitative RT-PCR splicing assay in cultured cells. The class given is cell-based, human. Conditions: GM03813 Type 1 SMA patient fibroblasts, increasing concentrations, 24 hrs, agarose gel. The procedure:
The endpoint reverse transcription-PCR splicing assay is used to visualize and quantify the levels of the full length and Δ7 SMN2 mRNAs in primary cells and cell lines containing the SMN2 gene treated with a test compound.
Protocol. GM03813 SMA patient cells (5,000 cells/well) are seeded in 200 μL of cell culture medium (DMEM plus 10% FBS) in 96-well flat-bottom plates and the plate is immediately swirled to ensure proper dispersal of cells, forming an even monolayer of cells. Cells are allowed to attach for at least 4-6 hrs. Test compounds are serially diluted 3.16-fold in 100% DMSO to generate a 7-point concentration curve. A solution of test compound (1 μL, 200× in DMSO) is added to each test well and 1 μL DMSO is added to each control well. The plate is incubated for 24 hrs in a cell culture incubator (37° C., 5% CO2, 100% relative humidity). The cells are then lysed in Cells-To-Ct lysis buffer and the lysate is stored at −80° C.
SMN FL and Δ7 mRNAs are identified using the following primers in Table 6. These primers hybridize to a nucleotide sequence in exon 6 (SMN Forward C, SEQ ID NO. 11) (nucleotide 43 to nucleotide 63) and exon 8 (SMN Reverse C, SEQ ID NO. 12) (nucleotide 51 to nucleotide 73) common to human SMN1 and SMN2 mRNAs. Since the SMA patient cells used in Example 4 contain only the SMN2 gene, RT-PCR can visualize and quantify only SMN2 full-length and SMN2 Δ7 mRNAs.
To synthesize cDNA, 5 μL of lysate, 4 μL of 5× iScript reaction mix, 1 μL of reverse transcriptase, and 10 μL of water are combined and incubated 5 min at 25° C. followed by 30 min at 42° C., followed by 5 min at 85° C. cDNA solution is stored at −20° C.
To perform endpoint PCR, 5 μL of cDNA, 0.2 μL of 100 μM forward primer, 0.2 μL of 100 μM reverse primer, and 22.5 μL of polymerase super mix are combined in a 96 well semiskirted PCR plate. PCR is carried out at the following temperatures for indicated time: Step 1: 94° C. (2 min), Step 2: 94° C. (30 sec), Step 3: 55° C. (30 sec), Step 4: 68° C. (1 min), then repeat Steps 2 to 4 for a total of 33 cycles, then hold at 4° C.
10 μL of each PCR sample is electrophoretically separated on a 2% agarose E-gel for 14 minutes stained with ds DNA staining reagents (e.g., ethidium bromide) and visualized using a gel imager.

A further experiment has as its system Smn protein. The experiment in a line: Smn protein in tissues of neonatal Δ7 SMA mice. The class given is in vivo, mouse. Conditions: neonatal SMA Δ7 homozygous knockout mice; brain, spinal cord, muscle; IP QD from PND 3 to day 9. As for the experimental part:
Protocol. The tissue samples in Safe-Lock tubes are weighed and the volume of RIPA buffer containing the protease inhibitor cocktail is added based on the weight to volume ratios for each type of tissue: Brain (50 mg/mL), Muscle (50 mg/mL) and Spinal Cord (25 mg/mL).
Tissues are homogenized using the TissueLyzer by bead milling. 5 mm stainless steel beads are added to the sample and shaken vigorously for 5 minutes at 30 Hz in the TissueLyzer. The samples are then centrifuged for 20 minutes at 14,000×g in a microcentrifuge and the homogenates transferred to the PCR plate. The homogenates are diluted in RIPA buffer to approximately 1 mg/mL for HTRF and approximately 0.5 mg/mL for total protein measurement using the BCA protein assay. […] Fluorescence for each well of the plate at 665 nm and 620 nm is measured on an EnVision multilabel plate reader (Perkin-Elmer). The total protein in the tissue homogenate is measured using the BCA assay according to the manufacturer's protocol.
The normalized fluorescence signal is calculated for each sample, Blank and vehicle control well by dividing the signal at 665 nm by the signal at 620 nm. Normalizing the signal accounts for possible fluorescence quenching due to the matrix effect of the tissue homogenate. […] The ΔF value for each tissue sample well is divided by the total protein quantity (determined using the BCA assay) for that tissue sample. […]

In the case of `CCN1CCN(c2ccc3cc(-c4cn5cc(C)nc(C)c5n4)c(=O)oc3c2)C[C@@H]1C` [Cpd 626, 3-(6,8-dimethylimidazo[1,2-a]pyrazin-2-yl)-7-[(3S)-4-ethyl-3-methylpiperazin-1-yl]-2H-chromen-2-one], in experiment [1], the “SMN2 FL mRNA” value was “progressively more SMN2 FL mRNA” and the “SMN2 Δ7 mRNA” value is “less SMN2 Δ7 mRNA”. Moreover, in the experiment on Smn protein, the “total protein normalized Smn level” value is reported as “dose dependently increased”.

As to `CC(C)NCCc1ccc2cc(-c3nc4c(Cl)cccc4s3)c(=O)oc2c1` [Cpd 35, 3-(4-chloro-1,3-benzothiazol-2-yl)-7-[2-(propan-2-ylamino)ethyl]-2H-chromen-2-one], in experiment [1], the “SMN2 FL mRNA” value is listed as “progressively more SMN2 FL mRNA” and the “SMN2 Δ7 mRNA” value is listed as “less SMN2 Δ7 mRNA”. Besides, the “total protein normalized Smn level” value in the experiment with Smn protein is reported as “dose dependently increased”.
